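Tested at 5 concentrations; 48 h exposure; 96-well plates; endpoints linearly interpolated, else capped at highest concentration. At the TGI there is no net growth.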
Assays:
Test in all cases: NCI tumour cell line growth inhibition, 48 h
[1] = tested on: 786-0 renal
[2] = tested on: HCT-15 colon
[3] = tested on: LOX IMVI melanoma
[4] = tested on: OVCAR-8 ovarian
[5] = tested on: UO-31 renal
[6] = tested on: TK-10 renal
[7] = tested on: SNB-75 CNS
[8] = tested on: IGROV1 ovarian
[9] = tested on: BT-549 breast
[10] = tested on: MOLT-4 leukemia
[11] = tested on: U251 CNS
[12] = tested on: SNB-19 CNS
[13] = tested on: MCF7 breast
[14] = tested on: CAKI-1 renal
[15] = tested on: M14 melanoma
[16] = tested on: HCC-2998 colon
[17] = tested on: HOP-62 NSCLC
[18] = tested on: MDA-MB-435
[19] = tested on: SF-539 CNS
[20] = tested on: OVCAR-4 ovarian
[21] = tested on: RXF 393 renal
[22] = tested on: COLO 205 colon
[23] = tested on: SF-268 CNS
[24] = tested on: DU-145 prostate
[25] = tested on: PC-3 prostate
[26] = tested on: KM12 colon
[27] = tested on: NCI-H522 lung
[28] = tested on: NCI-H226 lung
[29] = tested on: UACC-62 melanoma
[30] = tested on: HT29 colon
[31] = tested on: RPMI-8226 leukemia
[32] = tested on: A498 renal
[33] = tested on: A549 NSCLC
[34] = tested on: CCRF-CEM leukemia
[35] = tested on: NCI-H23 lung
[36] = tested on: NCI/ADR-RES ovarian
[37] = tested on: HS 578T breast
[38] = tested on: HL-60(TB) leukemia
[39] = tested on: SK-MEL-2 melanoma
[40] = tested on: SK-OV-3 ovarian
[41] = tested on: ACHN renal
[42] = tested on: SF-295 CNS
[43] = tested on: OVCAR-3 ovarian
[44] = tested on: SK-MEL-28 melanoma
[45] = tested on: SK-MEL-5 melanoma
[46] = tested on: UACC-257 melanoma
[47] = tested on: SW-620 colon
[48] = tested on: OVCAR-5 ovarian
[49] = tested on: MDA-N
[50] = tested on: MALME-3M melanoma
[51] = tested on: SN12C renal
[52] = tested on: HOP-92 NSCLC
[53] = tested on: SR leukemia
[54] = tested on: T-47D breast
[55] = tested on: HCT-116 colon
[56] = tested on: EKVX NSCLC
[57] = tested on: MDA-MB-231 breast
[58] = tested on: K-562 leukemia
[59] = tested on: NCI-H460 lung

With `CCC1CC(C)C(O)/C=C/C=C/CC(C)OC(=O)CC(O)C(OC)C1OC1OC(C)CC(O)(C(C)=O)C1O` (stereo not given) the TGI [1] was > 100 µM, the TGI [2] was > 100 µM and the TGI [3] was > 100 µM. For the same compound, the TGI [4] was > 100 µM, the TGI [5] was > 100 µM and the TGI [6] was > 100 µM. The TGI [7] was > 100 µM, the TGI [8] was > 100 µM and the TGI [9] was > 100 µM. The TGI [10] was > 100 µM, the TGI [11] was > 100 µM and the TGI [12] was 79.5 µM. The TGI [13] was > 100 µM, the TGI [14] was > 100 µM and the TGI [15] was > 100 µM. The TGI [16] was 66.5 µM, the TGI [17] was > 100 µM and the TGI [18] was > 100 µM. The TGI [19] was > 100 µM, the TGI [20] was 42.8 µM and the TGI [21] was > 100 µM. For the same compound, the TGI [22] was > 100 µM, the TGI [23] was > 100 µM and the TGI [24] was > 100 µM. The TGI [25] was > 100 µM, the TGI [26] was > 100 µM and the TGI [27] was 51.4 µM. The TGI [28] was > 100 µM, the TGI [29] was > 100 µM and the TGI [30] was > 100 µM. The TGI [31] was > 100 µM, the TGI [32] was > 100 µM and the TGI [33] was > 100 µM. For the same compound, the TGI [34] was > 100 µM, the TGI [35] was > 100 µM and the TGI [36] was > 100 µM. For the same compound, the TGI [37] was > 100 µM, the TGI [38] was 42.4 µM and the TGI [39] was > 100 µM. The TGI [40] was > 100 µM, the TGI [41] was > 100 µM and the TGI [42] was > 100 µM. The TGI [43] was > 100 µM, the TGI [44] was > 100 µM and the TGI [45] was > 100 µM. For the same compound, the TGI [46] was > 100 µM, the TGI [47] was > 100 µM and the TGI [48] was > 100 µM. For the same compound, the TGI [49] was > 100 µM, the TGI [50] was > 100 µM and the TGI [51] was > 100 µM. The TGI [52] was > 100 µM, the TGI [53] was 59.8 µM and the TGI [54] was > 100 µM. The TGI [55] was > 100 µM, the TGI [56] was > 100 µM and the TGI [57] was 67.9 µM.

`CC(/C=N/N(C)C1=NCCCN1)=N/N(C)C1=NCCCN1` was tested, and the TGI [1] was > 100 µM, the TGI [2] was > 100 µM and the TGI [3] was > 100 µM. For the same compound, the TGI [4] was > 100 µM, the TGI [5] was > 100 µM and the TGI [6] was > 100 µM. For the same compound, the TGI [7] was > 100 µM, the TGI [8] was > 100 µM and the TGI [9] was > 100 µM. The TGI [10] was > 100 µM, the TGI [11] was > 100 µM and the TGI [12] was > 100 µM. The TGI [13] was > 100 µM, the TGI [14] was > 100 µM and the TGI [16] was > 100 µM. The TGI [17] was > 100 µM, the TGI [18] was > 100 µM and the TGI [19] was > 100 µM. The TGI [20] was > 100 µM, the TGI [21] was > 100 µM and the TGI [22] was > 100 µM. For the same compound, the TGI [23] was > 100 µM, the TGI [24] was > 100 µM and the TGI [25] was > 100 µM. For the same compound, the TGI [26] was > 100 µM, the TGI [27] was > 100 µM and the TGI [28] was > 100 µM. The TGI [29] was > 100 µM, the TGI [30] was > 100 µM and the TGI [31] was > 100 µM. The TGI [32] was > 100 µM, the TGI [33] was > 100 µM and the TGI [34] was > 100 µM. For the same compound, the TGI [35] was > 100 µM, the TGI [36] was > 100 µM and the TGI [37] was > 100 µM. For the same compound, the TGI [38] was > 100 µM, the TGI [39] was > 100 µM and the TGI [40] was > 100 µM. The TGI [41] was > 100 µM, the TGI [42] was > 100 µM and the TGI [43] was > 100 µM. For the same compound, the TGI [44] was > 100 µM, the TGI [45] was > 100 µM and the TGI [58] was > 100 µM. For the same compound, the TGI [46] was > 100 µM, the TGI [47] was > 100 µM and the TGI [48] was > 100 µM. For the same compound, the TGI [49] was > 100 µM, the TGI [50] was > 100 µM and the TGI [51] was > 100 µM. For the same compound, the TGI [52] was > 100 µM, the TGI [53] was > 100 µM and the TGI [54] was > 100 µM. The TGI [55] was > 100 µM, the TGI [59] was > 100 µM and the TGI [56] was > 100 µM. For the same compound, the TGI [57] was > 100 µM.
